The MIC80 is the lowest concentration that inhibits either 80% of growth or 80% of the strains tested, depending on the study.

SMILES strings stand for the structures.

Drawing on patent publication US8940768B2, “Antifungal triazole derivatives” (Daewoong Pharmaceutical Co., Ltd., priority 2010, dated 2015), this text covers MIC80 for 22 compounds.

This test deals with Candida albicans. Put plainly: in vitro antifungal activity (MIC80), Candida albicans. The test is classed as cell-based. To be noted: 80% growth inhibition vs negative control, RPMI 1640, read 24 hrs after application, Table 2, read-out: Antifungal Activity (MIC80) Candida albicans. As to the method:
The compounds of the present invention were evaluated for inhibitory activity against yeast molds including Candida albicans, Candida glabrata, Candida krusei, Candida tropicalis, Candida parapsilosis, and Cryptococcus neoformans, and filamentous fungi including Aspergillus fumigatus, Trichophyton mentagrophytes (obtained from KCTC (Korean Collection for Type Cultures), and Trichophyton rubrum (obtained from KCCM (Korean Culture Center of Microorganisms). All the strains, but Trichophyton mentagrophytes and Trichophyton rubrum, were purchased from the ATCC (American Type Culture Collection).
Of the strains used in this test, Candida albicans, Candida glabrata, Candida krusei, Candida tropicalis, Candida parapsilosis, Trichophyton mentagrophytes and Trichophyton rubrum were inoculated into sabouraud dextrose agars (Difco, BD-0109), Cryptococcus neoformans into a yeast mold agar (YM agar, Difco, 271210), and Aspergillus fumigatus into a malt extract agar (Difco, 211220), before incubation at 35° C. for two to ten days.
From the agars on which the yeast molds were grown, single colonies were picked up, and each was sufficiently suspended in 5 mL of already prepared, 0.85% sterile saline. After correction of the absorbance to 0.108 at 530 nm, each of the suspensions was diluted to a ratio of 1:50 in an RPMI (Roswell park memorial institute) 1640 medium and then to a ratio of 1:20 to prepare an inoculum having a cell density of from 1.0×10^3 to 5.0×10^3CFU/mL. The cell density was adjusted into […]˜5.0×10^4 CFU/mL for Aspergillus fumigates and 0.4×10^4˜5.0×10^4 CFU/mL for both Trichophyton mentagrophytes and Trichophyton rubrum.
The antifungal agent samples were prepared by diluting the active compounds in an RPMI 1640 medium to a serial density of from 0.0156 to 32 μg/mL. In this context, dimethylsulfoxide (DMSO) was used as an excipient at a final concentration of 1% (v/v). The serial dilutions were aliquoted at a volume of 0.1 mL and applied to 0.1 mL of the aliquots of each inoculum, followed by incubation.
With the naked eyes, an observation was made of all of the yeast molds, but Cryptococcus neoformans 24 hrs after the application, Cryptococcus neoformans and Aspergillus fumigatus 48 hrs after the application, and Trichophyton mentagrophytes and Trichophyton rubrum five days after the application to examine whether the fungi grew or not. In addition, Alamarblue™ as used to determine the concentrations of the compounds of the present invention at which the growth of the microorganisms was 80% inhibited compared to that of the negative control. All experiments were performed in duplicate for each of the test concentration groups.

As to `C[C@@H](N1CCC(Oc2ccccc2F)CC1)[C@](O)(Cn1cncn1)c1ccc(F)cc1F` [Example 3, (2R,3R)-2-(2,4-difluorophenyl)-3-(4-(2-fluorophenoxy)piperidin-1-yl)-1-(1H-1,2,4-triazol-1-yl)butan-2-ol], the MIC80 is at most 0.015 µg/mL.
Then `C[C@@H](N1CCC(Oc2ccc(C#N)cc2)CC1)[C@](O)(Cn1cncn1)c1ccc(F)cc1F` [Example 16, 4-((1-((2R,3R)-3-(2,4-difluorophenyl)-3-hydroxy-4-(1H-1,2,4-triazol-1-yl)butan-2-yl)piperidin-4-yl)oxy)benzonitrile], with at most 0.015 µg/mL; and `C[C@@H](N1CCC(Oc2ccc(F)cn2)CC1)[C@](O)(Cn1cncn1)c1ccc(F)cc1F` [Example 25, (2R,3R)-2-(2,4-difluorophenyl)-3-(4-((5-fluoropyridin-2-yl)oxy)piperidin-1-yl)-1-(1H-1,2,4-triazol-1-yl)butan-2-ol], with at most 0.015 µg/mL; and `C[C@@H](N1CCC(Oc2ccc(Cl)cn2)CC1)[C@](O)(Cn1cncn1)c1ccc(F)cc1F` [Example 26, (2R,3R)-3-(4-((5-chloropyridin-2-yl)oxy)piperidin-1-yl)-2-(2,4-difluorophenyl)-1-(1H-1,2,4-triazol-1-yl)butan-2-ol], with at most 0.015 µg/mL.
Then `C[C@@H](N1CCC(Oc2ncc(F)cn2)CC1)[C@](O)(Cn1cncn1)c1ccc(F)cc1F` [Example 30, (2R,3R)-2-(2,4-difluorophenyl)-3-(4-((5-fluoropyrimidin-2-yl)oxy)piperidin-1-yl)-1-(1H-1,2,4-triazol-1-yl)butan-2-ol], with at most 0.015 µg/mL; and `C[C@@H](N1CCC(Nc2ccccc2)CC1)[C@](O)(Cn1cncn1)c1ccc(F)cc1F` [Example 35, (2R,3R)-2-(2,4-difluorophenyl)-3-(4-(phenylamino)piperidin-1-yl)-1-(1H-1,2,4-triazol-1-yl)butan-2-ol], with at most 0.015 µg/mL; and `C[C@@H](N1CCC(Nc2ccc(F)cc2)CC1)[C@](O)(Cn1cncn1)c1ccc(F)cc1F` [Example 38, (2R,3R)-2-(2,4-difluorophenyl)-3-(4-((4-fluorophenyl)amino)piperidin-1-yl)-1-(1H-1,2,4-triazol-1-yl)butan-2-ol], with at most 0.015 µg/mL.
Turning to `C[C@@H](N1CCC(Nc2ccc(C(F)(F)F)cc2)CC1)[C@](O)(Cn1cncn1)c1ccc(F)cc1F` [Example 46, (2R,3R)-2-(2,4-difluorophenyl)-1-(1H-1,2,4-triazol-1-yl)-3-(4-((4-(trifluoromethyl)phenyl)amino)piperidin-1-yl)butan-2-ol], the MIC80 was at most 0.015 µg/mL.
In the case of `C[C@@H](N1CCC(Nc2ccc(C#N)cc2)CC1)[C@](O)(Cn1cncn1)c1ccc(F)cc1F` [Example 49, 4-((1-((2R,3R)-3-(2,4-difluorophenyl)-3-hydroxy-4-(1H-1,2,4-triazol-1-yl)butan-2-yl)piperidin-4-yl)amino)benzonitrile], the MIC80 is at most 0.015 µg/mL.
Then `C[C@@H](N1CCC(Nc2ncc(C(F)(F)F)cc2Cl)CC1)[C@](O)(Cn1cncn1)c1ccc(F)cc1F` [Example 60, (2R,3R)-3-(4-((3-chloro-5-(trifluoromethyl)pyridin-2-yl)amino)piperidin-1-yl)-2-(2,4-difluorophenyl)-1-(1H-1,2,4-triazol-1-yl)butan-2-ol], with at most 0.015 µg/mL; and `C[C@@H](N1CCC(Nc2ncccn2)CC1)[C@](O)(Cn1cncn1)c1ccc(F)cc1F` [Example 62, (2R,3R)-2-(2,4-difluorophenyl)-3-(4-(pyrimidin-2-ylamino)piperidin-1-yl)-1-(1H-1,2,4-triazol-1-yl)butan-2-ol], with at most 0.015 µg/mL; and `C[C@@H](N1CCC(Nc2ncc(Br)cn2)CC1)[C@](O)(Cn1cncn1)c1ccc(F)cc1F` [Example 64, (2R,3R)-3-(4-((5-bromopyrimidin-2-yl)-amino)piperidin-1-yl)-2-(2,4-difluorophenyl)-1-(1H-1,2,4-triazol-1-yl)butan-2-ol], with at most 0.015 µg/mL.
On to `C[C@@H](N1CCC(N(C)c2ccccc2)CC1)[C@](O)(Cn1cncn1)c1ccc(F)cc1F` [Example 67, (2R,3R)-2-(2,4-difluorophenyl)-3-(4-(methyl(phenyl)amino)piperidin-1-yl)-1-(1H-1,2,4-triazol-1-yl)butan-2-ol], for which the MIC80 is at most 0.015 µg/mL.
With `C[C@@H](N1CCC(N(C)c2ccc(F)cc2)CC1)[C@](O)(Cn1cncn1)c1ccc(F)cc1F` [Example 70, (2R,3R)-2-(2,4-difluorophenyl)-3-(4-((4-fluorophenyl)(methyl)amino)piperidin-1-yl)-1-(1H-1,2,4-triazol-1-yl)butan-2-ol], the MIC80 is at most 0.015 µg/mL.
The result for `C[C@@H](N1CCC(N(C)c2ccc(Cl)cc2)CC1)[C@](O)(Cn1cncn1)c1ccc(F)cc1F` [Example 73, (2R,3R)-3-(4-((4-chlorophenyl)(methyl)amino)piperidin-1-yl)-2-(2,4-difluorophenyl)-1-(1H-1,2,4-triazol-1-yl)butan-2-ol] reads at most 0.015 µg/mL.
Then `C[C@@H](N1CCC(N(C)c2ccc(C(F)(F)F)cc2)CC1)[C@](O)(Cn1cncn1)c1ccc(F)cc1F` [Example 79, (2R,3R)-2-(2,4-difluorophenyl)-3-(4-(methyl(4-(trifluoromethyl)phenyl)amino)piperidin-1-yl)-1-(1H-1,2,4-triazol-1-yl)butan-2-ol], with at most 0.015 µg/mL; and `C[C@@H](N1CCC(N(C)c2ccc(C#N)cc2)CC1)[C@](O)(Cn1cncn1)c1ccc(F)cc1F` [Example 82, 4-((1-((2R,3R)-3-(2,4-difluorophenyl)-3-hydroxy-4-(1H-1,2,4-triazol-1-yl)butan-2-yl)piperidin-4-yl)(methyl)amino)benzonitrile], with at most 0.015 µg/mL.
Then `C[C@@H](OC1CCN(c2ncccn2)CC1)[C@](O)(Cn1cncn1)c1ccc(F)cc1F` [Example 89, (2R,3R)-2-(2,4-difluorophenyl)-3-((1-(pyrimidin-2-yl)piperidin-4-yl)oxy)-1-(1H-1,2,4-triazol-1-yl)butan-2-ol], with at most 0.015 µg/mL; and `C[C@@H](OC1CCN(c2ccccc2)CC1)[C@](O)(Cn1cncn1)c1ccc(F)cc1F` [Example 90, (2R,3R)-2-(2,4-difluorophenyl)-3-((1-phenylpiperidin-4-yl)oxy)-1-(1H-1,2,4-triazol-1-yl)butan-2-ol], with at most 0.015 µg/mL.
On to `C[C@@H](OC1CCN(c2ccc(F)cc2)CC1)[C@](O)(Cn1cncn1)c1ccc(F)cc1F` [Example 93, (2R,3R)-2-(2,4-difluorophenyl)-3-((1-(4-fluorophenyl)piperidin-4-yl)oxy)-1-(1H-1,2,4-triazol-1-yl)butan-2-ol], for which the MIC80 was at most 0.015 µg/mL.
`C[C@@H](OC1CCN(c2ccc(Cl)cc2)CC1)[C@](O)(Cn1cncn1)c1ccc(F)cc1F` [Example 96, (2R,3R)-3-((1-(4-chlorophenyl)piperidin-4-yl)oxy)-2-(2,4-difluorophenyl)-1-(1H-1,2,4-triazol-1-yl)butan-2-ol]: the MIC80 was at most 0.015 µg/mL.
Then `C[C@@H](OC1CCN(c2ccc(C(F)(F)F)cc2)CC1)[C@](O)(Cn1cncn1)c1ccc(F)cc1F` [Example 102, (2R,3R)-2-(2,4-difluorophenyl)-1-(1H-1,2,4-triazol-1-yl)-3-((1-(4-(trifluoromethyl)phenyl)piperidin-4-yl)oxy)butan-2-ol], with at most 0.015 µg/mL.
